Assay results taken from patent EP3017816A2, “DIINDOLYLMETHANE-BASED MEDICINAL AGENT AND USE THEREOF TO TREAT INFLUENZA AND VIRAL RESPIRATORY INFECTIONS” (Kiselev, Vsevolod Ivanovich, priority 2013, dated 2014).
“And” between values parts separate entries of the source, which are not always exact repeats. Identical values can stand only once.

Experiments:
[1] = test system: A/Aichi/2/68 (H3N2) influenza virus; assay: Virus titration in lung tissue of infected mice (CAM fragments, hemagglutination reaction); assay type: in vivo, white mice; settings: 3rd day
[2] = test system: A/Aichi/2/68 (H3N2) influenza virus; assay: Experimental lethal influenza infection in mice: mortality, average life, protection index; assay type: in vivo, white mice; settings: for Average life / Protection index, % / total mortality (number of dead/infected): reference preparation, dose not given; for total mortality (number of dead/infected): day 15
[3] = Concentration of diindolylmethane in volunteers' plasma after oral administration; assay type: in vivo; settings: same dosage; range of concentrations approximately 300 ng/ml
Description: In all the clinical studies, pharmacokinetics comparison was made between the DIM preparation of the invention on the basis of A-type fish oil with the concentration 1-10% of preparation, the DIM preparation on the basis of Omega 3 and the crystalline DIM in the same dosages. […] The maximum DIM concentration in blood was observed two hours after the administration of preparations and achieved approximately 300 ng/ml.

[4] = test system: A/Aichi/2/68 (H3N2) influenza virus; assay: Surface of chronic postinfluenzal pneumonia foci in lungs of surviving mice; assay type: in vivo, white mice; settings: for Surface of chronic pneumonia foci (% of total surface of the lung surface): reference preparation, dose not given, survivors day 15
Description: The animals that survived to the 15th day after infection were autopsied and their lungs were studied macroscopically. Visual evaluation was carried out of the surface of chronic foci of postinfluenzal pneumonia remaining in the lung tissue of mice after the acute stage of the influenza infection within the entire life of the animal. The surface of the lesion foci was expressed in percentage to the entire lung surface.

Row | SMILES | Infectious titer of the influenza virus (lg EID50) in lungs ([1]; 60 mg/kg orally, virus dosage 1, group average) [lg EID50] | Infectious titer of the influenza virus (lg EID50) in lungs ([1]; 60 mg/kg orally, virus dosage 1, individual animals) | Infectious titer of the influenza virus (lg EID50) in lungs ([1]; 60 mg/kg orally, virus dosage 2, group average) [lg EID50] | Infectious titer of the influenza virus (lg EID50) in lungs ([1]; 60 mg/kg orally, virus dosage 2, individual animals) | survival of infected animals (Fig. 2) ([2]; virus dosage 10 LD50) | detection of DIM in the patients' plasma [3] | Infectious titer of the influenza virus (lg EID50) in lungs ([1]; 50 mg/kg orally, virus dosage 1, group average) [lg EID50] | Infectious titer of the influenza virus (lg EID50) in lungs ([1]; 50 mg/kg orally, virus dosage 1, individual animals) | Infectious titer of the influenza virus (lg EID50) in lungs ([1]; 50 mg/kg orally, virus dosage 2, group average) [lg EID50] | Infectious titer of the influenza virus (lg EID50) in lungs ([1]; 50 mg/kg orally, virus dosage 2, individual animals) | Average life ([2]; virus dosage 1 LD50) [days] | Protection index, % ([2]; virus dosage 1 LD50) [%] | total mortality (number of dead/infected) ([2]; virus dosage 1 LD50) | Average life ([2]; virus dosage 10 LD50) [days] | Protection index, % ([2]; virus dosage 10 LD50) [%] | total mortality (number of dead/infected) ([2]; virus dosage 10 LD50) | protection index ([2]; text summary over both virus dosages) | effect on the surface of chronic pneumonia foci [4] | Surface of chronic pneumonia foci (% of total surface of the lung surface) ([4]; viral dosage 1 LD50) [%] | Surface of chronic pneumonia foci (% of total surface of the lung surface) ([4]; viral dosage 10 LD50) [%]
1 | c1ccc2c(Cc3c[nH]c4ccccc34)c[nH]c2c1 [crystalline DIM, 3,3-diindolylmethane] | 3.8±0.17 | 4.0 lg EID50 (2×) and 3.5 lg EID50 | 4.5±0.29 | 5.0 lg EID50 and 4.0 lg EID50 and 4.5 lg EID50 | had no practical influence on the survival | did not enable one to discover it in this range of concentrations |  |  |  |  |  |  |  |  |  |  |  |  |  | 
2 | CC(N)C12CC3CC(CC(C3)C1)C2 (centres unmarked) [rimantadine] |  |  |  |  |  |  | 2.3±0.17 | 2.0 lg EID50 and 3.0 lg EID50 and 2.5 lg EID50 | 2.7±0.17 | 2.5 lg EID50 (2×) and 3.0 lg EID50 | 14.4 | 80 | 1/10 | 13.9 | 78 | 2/10 | 78-80% | reduced this index for each infecting dosage | 31±11.8 | 27±6.8
